Measured values: patent publication US20230302071A1, “ANTIDEPRESSANT COMPOSITION CONTAINING PLEUROTUS ERYNGII EXTRACT AS ACTIVE INGREDIENT” (KOREA UNIVERSITY RESEARCH AND BUSINESS FOUNDATION, priority 2020, published 2023)

Tests used:
mice = test: Forced swimming test (FST), immobility time; format: in vivo; conditions: intraperitoneal, each sample 20 mg/kg, 30 minutes before test, 4-minute period, FIG. 5
Description: In order to verify whether the fractions of the Pleurotus eryngii extract according to the present invention actually have antidepressant efficacy, a forced swimming test was performed using experimental animals. The antidepressant efficacy was determined by measuring the immobility time during a forced swimming test, and the less the immobility time, the greater the antidepressant efficacy. To this end, mice were intraperitoneally injected with each of the ethanol extract of Pleurotus eryngii according to the present invention and the primary fraction and the secondary fraction of the ethanol extract, after which the immobility time during a forced swimming test was measured. Each sample was injected in an amount of 20 mg/kg into experimental mice. Also, a Prozac-administered group was used as a positive control. Four mice (n=4) were intraperitoneally injected with each sample and then allowed to stand for 30 minutes, after which the mice were submerged in water for 6 minutes and then washed for a while, water in the water tank was exchanged, and the mice were placed again in the water tank for 4 minutes to conduct this experiment. Statistical processing was performed by measuring the immobility time during the 4-minute experimental period.

[1] = system: serotonin receptor-mediated signaling in AGS cell line; test: Serotonin receptor-mediated signaling in AGS cell line by Western blotting (pErk, pJNK); format: cell-based, human; conditions: FIG. 4
Description: Whether the fractions of the Pleurotus eryngii extract according to the present invention were involved in serotonin receptor-mediated signaling by treating an AGS cell line known to overexpress serotonin receptors with the fractions of the Pleurotus eryngii extract according to the present invention was evaluated using Western blotting. Here, an anti-pERK antibody, anti-Erk antibody, anti-pJNK antibody, anti-JNK antibody, and anti-α Tubulin antibody were used for western blotting.

| SMILES | reduction in immobility time compared to negative control (mice) [%] | expression of phosphorylated pErk [1] | expression of phosphorylated pJNK [1] |
| --- | --- | --- | --- |
| CNCCC(Oc1ccc(C(F)(F)F)cc1)c1ccccc1 (stereo not drawn) [Prozac] | 24 | – | – |
| NCCc1c[nH]c2ccc(O)cc12 [serotonin] | – | increased | increased |
